# From patent US11566007B2, “Ras inhibitors” (Revolution Medicines, Inc., priority 2019, dated 2023)
# Values joined by “and” are separate entries in the source; they are usually repeats but may differ in a detail not shown here. Equal entries are not always repeated. Where two headings read alike, the source gives them in different places.
# How the values were obtained:
# KRAS G12S = KRAS G12S (Homo sapiens (Human), UniProt P01116+P62937, G12S); assay: Ras-Raf (BRAF RBD) disruption / FRET / MOA assay, KRAS G12S; assay type: biochemical
# Chain of KRAS G12S (P01116-2 other isoform, or with tags, fused parts or gaps G12S): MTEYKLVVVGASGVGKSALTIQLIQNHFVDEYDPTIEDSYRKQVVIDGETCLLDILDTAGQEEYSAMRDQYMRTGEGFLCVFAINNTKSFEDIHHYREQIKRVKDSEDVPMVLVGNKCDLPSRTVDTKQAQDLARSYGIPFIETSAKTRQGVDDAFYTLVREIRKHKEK
# Chain of KRAS G12S (P62937 whole entry): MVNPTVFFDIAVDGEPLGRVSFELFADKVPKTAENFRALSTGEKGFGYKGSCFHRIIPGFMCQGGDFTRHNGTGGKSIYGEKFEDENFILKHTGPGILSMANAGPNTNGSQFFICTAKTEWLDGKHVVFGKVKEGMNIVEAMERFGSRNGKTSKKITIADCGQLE
# Outline: (§1)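 Compound-driven ternary complex of nucleotide-loaded Ras with cyclophilin A, disrupting BRAF RBD binding. 10-point 3-fold dilution from 30 μM final, 3 h at 25° C, then anti-His Eu-W1024 (10 nM) and anti-GST allophycocyanin (50 nM) for 1.5 h. IC50 from TR-FRET ratio decrease versus DMSO.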
# KRAS G12V = KRAS G12V (Homo sapiens (Human), UniProt P01116+P62937, G12V); assay: Ras-Raf (BRAF RBD) disruption / FRET / MOA assay, KRAS G12V; assay type: biochemical; details: read-out: IC50* KRAS G12V FRET data
# Chain of KRAS G12V (P01116-2 other isoform, or with tags, fused parts or gaps G12V): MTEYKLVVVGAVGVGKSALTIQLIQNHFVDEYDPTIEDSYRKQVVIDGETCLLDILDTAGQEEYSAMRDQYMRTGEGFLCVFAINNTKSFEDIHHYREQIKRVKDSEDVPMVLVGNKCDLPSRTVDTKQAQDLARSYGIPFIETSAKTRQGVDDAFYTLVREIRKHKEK
# Chain of KRAS G12V (P62937 whole entry, canonical isoform): as the sequence (P62937 whole entry) above
# Description: (§2) The purpose of this biochemical assay is to measure the ability of test compounds to facilitate ternary complex formation between a nucleotide-loaded Ras isoform and cyclophilin A; the resulting ternary complex disrupts binding to a BRAF^RBD construct, inhibiting Ras signaling through a RAF effector.
# (§3) Compound is present in plate wells as a 10-point 3-fold dilution series starting at a final concentration of 30 μM. After incubation at 25° C. for 3 hours, a mixture of Anti-His Eu-W1024 and anti-GST allophycocyanin is then added to assay sample wells at final concentrations of 10 nM and 50 nM, respectively, and the reaction incubated for an additional 1.5 hours. […] Compounds that facilitate disruption of a Ras:RAF complex are identified as those eliciting a decrease in the TR-FRET ratio relative to DMSO control wells.
# (§4) This protocol may also be executed substituting other Ras proteins or nucleotides.
# (§5) The purpose of this biochemical assay was to measure the ability of test compounds to facilitate ternary complex formation between a nucleotide-loaded K-Ras isoform and Cyclophilin A; the resulting ternary complex disrupts binding to a BRAF^RBD construct, inhibiting K-Ras signaling through a RAF effector. Data is reported as IC50 values.
# (§6) Compound was present in plate wells as a 10-point 3-fold dilution series starting at a final concentration of 30 μM. After incubation at 25° C. for 3 hours, a mixture of Anti-His Eu-W1024 and anti-GST allophycocyanin was then added to assay sample wells at final concentrations of 10 nM and 50 nM, respectively, and the reaction incubated for an additional 1.5 hours. […] Compounds that facilitate disruption of a K-Ras:RAF complex were identified as those eliciting a decrease in the TR-FRET ratio relative to DMSO control wells.
# [1] = test system: NCI-H358 cells (K-Ras G12C); assay: Potency assay: pERK in NCI-H358 cells; assay type: cell-based, human
# Outline: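 Compounds are dosed as ten 3-fold dilutions from a 10 mM DMSO stock, in duplicate, and left on cells for 4 h at 37 °C, 5% CO2. Phospho-ERK1/2 is then quantified by AlphaLISA SureFire Ultra or In-Cell Western, and IC50 is derived from a 4-parameter sigmoid against log concentration.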
# KRAS G12D = KRAS G12D (Homo sapiens (Human), UniProt P01116+P62937, G12D); assay: Ras-Raf (BRAF RBD) disruption / FRET / MOA assay, KRAS G12D; assay type: biochemical
# Chain of KRAS G12D (P01116-2 other isoform, or with tags, fused parts or gaps G12D): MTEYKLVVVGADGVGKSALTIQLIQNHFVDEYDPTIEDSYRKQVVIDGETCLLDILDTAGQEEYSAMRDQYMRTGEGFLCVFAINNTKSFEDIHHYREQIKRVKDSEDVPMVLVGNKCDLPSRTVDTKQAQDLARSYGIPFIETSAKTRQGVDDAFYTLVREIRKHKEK
# Chain of KRAS G12D (P62937 whole entry): as the sequence (P62937 whole entry) above
# Outline: as §1
# NCI-H358 (K-Ras G12C) = assay: CellTiter-Glo cell viability assay, NCI-H358; assay type: cell-based, human; details: NCI-H358, 5-day treatment, class symbols, read-out: Additional H358 Cell Viability assay data (K-Ras G12C, IC50)
# Outline: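 Luminescent viability readout on day 5 after direct compound addition to plated cells; plates sat ~30 min at room temperature before reading. Values expressed as percent of mean DMSO signal, curves fit with a four-parameter logistic model.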
# K-Ras G12C = K-Ras G12C (Homo sapiens (Human), UniProt P01116+P62937, G12C); assay: Ras-Raf (BRAF RBD) disruption / FRET / MOA assay, KRAS G12C; assay type: biochemical; details: KRAS G12C; Ras-Raf disruption/FRET/MOA assay; read-out: IC50* KRAS G12C FRET data
# Chain of K-Ras G12C (P01116-2 other isoform, or with tags, fused parts or gaps G12C): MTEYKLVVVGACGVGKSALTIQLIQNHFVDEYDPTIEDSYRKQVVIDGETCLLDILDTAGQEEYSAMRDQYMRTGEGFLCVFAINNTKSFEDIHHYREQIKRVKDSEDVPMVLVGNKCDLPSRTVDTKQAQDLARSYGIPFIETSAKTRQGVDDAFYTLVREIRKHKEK
# Chain of K-Ras G12C (P62937 whole entry): as the sequence (P62937 whole entry) above
# Description: as §2, §3, §4, §5, §6
# KRAS WT = KRAS WT (Homo sapiens (Human), UniProt P01116+P62937); assay: Ras-Raf (BRAF RBD) disruption / FRET / MOA assay, KRAS WT; assay type: biochemical; details: read-out: IC50* KRAS WT FRET data
# Chain of KRAS WT (P01116-2 other isoform, or with tags, fused parts or gaps): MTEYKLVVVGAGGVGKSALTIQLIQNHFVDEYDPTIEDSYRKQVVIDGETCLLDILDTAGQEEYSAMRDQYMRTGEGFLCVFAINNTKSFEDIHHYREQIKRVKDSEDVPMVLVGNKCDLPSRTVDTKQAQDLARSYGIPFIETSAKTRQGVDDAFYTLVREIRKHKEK
# Chain of KRAS WT (P62937 whole entry): as the sequence (P62937 whole entry) above
# Description: as §2, §3, §4, §5, §6
# K-Ras G13C = K-Ras G13C (Homo sapiens (Human), UniProt P01116+P62937, G13C); assay: Ras-Raf (BRAF RBD) disruption / FRET / MOA assay, KRAS G13C; assay type: biochemical; details: KRAS G13C; Ras-Raf disruption/FRET/MOA assay; read-out: IC50* KRAS G13C FRET data
# Chain of K-Ras G13C (P01116-2 other isoform, or with tags, fused parts or gaps G13C): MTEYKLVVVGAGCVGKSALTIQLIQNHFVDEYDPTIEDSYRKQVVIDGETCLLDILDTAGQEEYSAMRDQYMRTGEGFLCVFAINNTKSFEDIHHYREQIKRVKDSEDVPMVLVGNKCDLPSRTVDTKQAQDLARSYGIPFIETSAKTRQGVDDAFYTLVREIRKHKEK
# Chain of K-Ras G13C (P62937 whole entry): as the sequence (P62937 whole entry) above
# Description: as §2, §3, §4, §5, §6
# [2] = Ras-Raf disruption/FRET/MOA assay; class symbols; read-out: KRAS G12S FRET data IC50
# [3] = Ras-Raf disruption/FRET/MOA assay; class symbols; read-out: KRAS G12D FRET data IC50
# [4] = Homo sapiens, NCI-H358, H358 KRAS G12C, read-out: pERK EC50
SMILES,IC50 (KRAS G12S; read-out: KRAS G12S FRET data IC50; Ras-Raf disruption/FRET/MOA assay; class symbols),IC50 (KRAS G12V),"EC50 ([1]; Homo sapiens, NCI-H358, read-out: pERK EC50)",IC50 (KRAS G12D; read-out: KRAS G12D FRET data IC50; Ras-Raf disruption/FRET/MOA assay; class symbols),IC50 (KRAS G12S; [2]),IC50 (NCI-H358 (K-Ras G12C)),"EC50 ([1]; H358 KRAS G12C, read-out: pERK EC50)",IC50 (KRAS G12D; [3]),IC50 (K-Ras G12C),IC50 (KRAS WT),IC50 (K-Ras G13C),"IC50 (NCI-H358 (K-Ras G12C); Homo sapiens, NCI-H358, 120 h)","EC50 [1, 4]"
"C=CC(=O)N1CCN(C(=O)N(C)[C@H](C(=O)N[C@H]2Cc3nc(cs3)-c3ccc4c(c3)c(c(-c3cccnc3[C@H](C)OC)n4CC(F)(F)F)CC(C)(C)COC(=O)[C@@H]3CCCN(N3)C2=O)C(C)C)CC1 (atropisomer, axis not shown) [Example A464]",10 to 100 nM,10 to 100 nM,< 5000 nM,10 to 100 nM,–,–,–,–,–,–,–,–,–
"C=CC(=O)N1CCC(F)(C(=O)N(C)[C@H](C(=O)N[C@H]2Cc3cccc(c3)-c3ccc4c(c3)c(c(-c3cccnc3[C@H](C)OC)n4CC)CC(C)(C)COC(=O)[C@@H]3CCCN(N3)C2=O)C(C)C)CC1 (atropisomer, axis not shown) [Example A519]",–,–,–,–,100 to 1000 nM,< 10 nM,< 5000 nM,1000 to 10000 nM,–,–,–,–,–
CCn1c(-c2cccnc2COC)c2c3cc(ccc31)-c1cc(O)cc(c1)C[C@H](NC(=O)[C@H](C(C)C)N(C)C(=O)c1ccc(NC(=O)/C=C/CN(C)C)cn1)C(=O)N1CCC[C@H](N1)C(=O)OCC(C)(C)C2 [Example A067],–,1000 to 10000 nM,–,–,1000 to 10000 nM,–,–,1000 to 10000 nM,10 to 100 nM,1000 to 10000 nM,10 to 100 nM,–,–
CCn1c(-c2cccnc2COC)c2c3cc(ccc31)-c1cc(O)cc(c1)C[C@H](NC(=O)[C@H](C(C)C)N(C)C(=O)C1CN(C(=O)/C=C/CN(C)C)C1)C(=O)N1CCC[C@H](N1)C(=O)OCC(C)(C)C2 [Example A071],–,1000 to 10000 nM,–,–,1000 to 10000 nM,–,–,1000 to 10000 nM,10 to 100 nM,1000 to 10000 nM,10 to 100 nM,–,–
C=CC(=O)N1CC[C@H](C(=O)N(C)[C@H](C(=O)N[C@H]2Cc3cc(O)cc(c3)-c3ccc4c(c3)c(c(-c3ccccc3CCN3CCCC3)n4CC)CC(C)(C)COC(=O)[C@@H]3CCCN(N3)C2=O)C(C)C)C1 [Example A100],–,> 10000 nM,–,–,> 10000 nM,–,–,> 10000 nM,1000 to 10000 nM,> 10000 nM,> 10000 nM,100 to 1000 nM,< 5000 nM
C=CC(=O)N(C)CCCC(=O)N(C)[C@H](C(=O)N[C@H]1Cc2cc(O)cc(c2)-c2ccc3c(c2)c(c(-c2cccnc2COC)n3CC)CC(C)(C)COC(=O)[C@@H]2CCCN(N2)C1=O)C(C)C [Example A101],–,100 to 1000 nM,–,–,100 to 1000 nM,–,–,1000 to 10000 nM,100 to 1000 nM,100 to 1000 nM,100 to 1000 nM,100 to 1000 nM,< 5000 nM
C=CC(=O)N1CC[C@H](C(=O)N(C)[C@H](C(=O)N[C@H]2Cc3cc(O)cc(c3)-c3ccc4c(c3)c(c(-c3ccccc3CCOC)n4CC)C[C@H](C)COC(=O)[C@@H]3CCCN(N3)C2=O)C(C)C)C1 [Example A215],–,1000 to 10000 nM and > 10000 nM,–,–,1000 to 10000 nM and > 10000 nM,–,–,> 10000 nM,100 to 1000 nM and > 10000 nM,> 10000 nM,> 10000 nM,–,< 5000 nM
C=CC(=O)N1CC[C@]2(CCCN([C@H](C(=O)N[C@H]3Cc4cc(O)cc(c4)-c4ccc5c(c4)c(c(-c4ccccc4CCOC)n5CC)CC(C)(C)COC(=O)[C@@H]4CCCN(N4)C3=O)C(C)C)C2=O)C1 [Example A217],–,1000 to 10000 nM and > 10000 nM,–,–,1000 to 10000 nM and > 10000 nM,–,–,> 10000 nM,100 to 1000 nM and > 10000 nM,1000 to 10000 nM and > 10000 nM,1000 to 10000 nM and > 10000 nM,–,< 5000 nM
CCn1c(-c2ccccc2CCOC)c2c3cc(ccc31)-c1cc(O)cc(c1)C[C@H](NC(=O)[C@H](C(C)C)N(C)C(=O)c1ccc(NC(=O)/C=C/CN(C)C)nc1)C(=O)N1CCC[C@H](N1)C(=O)OCC(C)(C)C2 [Example A218],–,1000 to 10000 nM and > 10000 nM,–,–,> 10000 nM,–,–,1000 to 10000 nM,100 to 1000 nM and 1000 to 10000 nM,> 10000 nM,10 to 100 nM and 100 to 1000 nM,> 1000 nM,< 5000 nM
CC#CC(=O)N1CC[C@H](C(=O)N(C)[C@H](C(=O)N[C@H]2Cc3cc(O)cc(c3)-c3ccc4c(c3)c(c(-c3ccccc3CCOC)n4CC)CC(C)(C)COC(=O)[C@@H]3CCCN(N3)C2=O)C(C)C)C1 [Example A221],–,1000 to 10000 nM and > 10000 nM,–,–,1000 to 10000 nM and > 10000 nM,–,–,> 10000 nM,100 to 1000 nM and > 10000 nM,> 10000 nM,> 10000 nM and 1000 to 10000 nM,–,< 5000 nM
C=CC(=O)N1CCC2(CC1)CCN([C@H](C(=O)N[C@H]1Cc3cc(O)cc(c3)-c3ccc4c(c3)c(c(-c3ccccc3CCOC)n4CC)CC(C)(C)COC(=O)[C@@H]3CCCN(N3)C1=O)C(C)C)C2=O [Example A222],–,> 10000 nM,–,–,> 10000 nM,–,–,> 10000 nM,100 to 1000 nM and 1000 to 10000 nM,1000 to 10000 nM and > 10000 nM,100 to 1000 nM and > 10000 nM,–,< 5000 nM
C=CC(=O)N1CC[C@H](C(=O)N(C)[C@H](C(=O)N[C@H]2Cc3cc(O)cc(c3)-c3ccc4c(c3)c(c(-c3ccc(OCC(=O)O)cc3)n4CC)CC(C)(C)COC(=O)[C@@H]3CCCN(N3)C2=O)C(C)C)C1 [Example A223],–,1000 to 10000 nM and > 10000 nM,–,–,1000 to 10000 nM and > 10000 nM,–,–,> 10000 nM,100 to 1000 nM and > 10000 nM,> 10000 nM,> 10000 nM,> 1000 nM,–
C=CC(=O)N1CC[C@H](C(=O)N(C)[C@H](C(=O)NC2C[C@H]3CN(CCCO3)c3ccc4c(c3)c(c(-c3cccnc3[C@H](C)OC)n4CC)CC(C)(C)COC(=O)[C@@H]3CCCN(N3)C2=O)C(C)C)C1 (some centres unmarked) [Example A429],–,–,–,–,> 10000 nM,> 1000 nM,–,> 10000 nM,> 10000 nM,–,–,–,–
C=CC(=O)N1CC[C@H](C(=O)N(C)[C@H](C(=O)N[C@H]2Cc3cc(N)cc(c3)-c3ccc4c(c3)c(c(-c3ccccc3CCOC)n4CC)CC(C)(C)COC(=O)[C@@H]3CCCN(N3)C2=O)C(C)C)C1 [Examples A002],–,–,–,–,> 10000 nM,–,–,> 10000 nM,1000 to 10000 nM,–,–,–,–
